Data published in patent US20250262198A1, “METHOD FOR TREATING MULTIPLE SCLEROSIS” (BEIJING INNOCARE PHARMA TECH CO., LTD., priority 2022, published 2025).

What was measured:
[1] = system: MOG35-55-induced EAE mouse model; assay: MOG35-55-induced EAE mouse model of multiple sclerosis, oral orelabrutinib; assay type: in vivo, C57BL/6 mouse
Method: Multiple sclerosis (MS) is a chronic neuroinflammatory demyelinating disorder of the central nervous system (CNS). EAE (Experimental Autoimmune Encephalomyelitis) is the most common animal model of human MS as it is especially useful to investigate neuroinflammatory pathways. The synthesized peptide MOG35-55-induced EA E mouse model was used to evaluate the therapeutic potential of orelabrutinib. 100 μL emulsion consisted of 0.75 mg/ml MOG35-55 and 4 mg/mL CFA were injected subcutaneously into two different sites on each hind flank of each C57BL/6 mouse. 300 ng of pertussis toxin in 100 μL of PBS were injected intraperitoneally at the day of immunization and two days later. Mice were randomized into 2 groups as follows: vehicle and orelabrutinib 30 mg/kg/day. Each group had 10 animals. On the day of immunization, animals were dosed QD by PO gavage with either vehicle or test compound for 21 days.

[2] = system: patients with relapsing-remitting multiple sclerosis (RRMS); assay: Randomized, double-blind, placebo-controlled phase 2 study of orelabrutinib in RRMS patients (Core part); assay type: in vivo, human; settings: for percent reduction of cumulative number of new Gd+T1 brain lesions relative to placebo: ITT population; for Adjusted mean cumulative number of new Gd+T1 lesions from W 4 to W 24 / Adjusted mean cumulative number of new Gd+T1 lesions at Week 12 / % Reduction of cumulative number of new Gd+T1 lesions from Week 4 to Week 24 vs placebo/50 mg QD switch arm / % Reduction of cumulative number of new Gd+T1 brain lesions vs placebo / Annualized relapse rate (ARR): PHS population; for Adjusted mean cumulative number of new Gd+T1 lesions at Week 12: placebo 4.34
Method: This is a randomized, double-blind, placebo-controlled, phase 2 study of orelabrutinib in patients with relapsing-remitting multiple sclerosis (RRMS) that consists of 2 parts: a Core part and an Open-label Extension (OLE) part. The Core part is completed, and the OLE part is on-going.
The completed Core part consisted of a 4-week screening period and 24-week treatment period. Patients with RRMS were randomly assigned to 1 of 4 treatment groups in a 1:1:1:1 ratio: placebo, orelabrutinib 50 mg once daily (QD), orelabrutinib 50 mg twice daily (BID), or orelabrutinib 80 mg QD. At Week 13, patients in the placebo cohort were switched to orelabrutinib 50 mg QD.
Patients with RRMS were randomly assigned to 1 of 4 treatment groups: placebo, orelabrutinib (50 mg, once daily [QD]), orelabrutinib (80 mg QD) and orelabrutinib (50 mg, twice daily [BID]) at a 1:1:1:1 ratio. • Cohort 1: Placebo (Week 1-12)/orelabrutinib 50 mg QD (Week 13-24) • Cohort 2: Orelabrutinib 50 mg QD (Week 1-24) • Cohort 3: Orelabrutinib 80 mg QD (Week 1-24) • Cohort 4: Orelabrutinib 50 mg BID (Week 1-24)
At week 12 of the treatment period, subjects in Cohort 1 were switched to orelabrutinib at a starting daily dose of 50 mg. A separate open-label extension (OLE) study was developed to allow continued dosing, provided that safety and tolerability were acceptable.
Placebo or orelabrutinib was orally administered daily starting on Day 1 of the treatment period. Subjects returned to study site on Day 8 and every 4 weeks starting from Day 1 for trial visits and were assessed for safety and efficacy.
• Intent-to treat (ITT) population. 158 patients randomized: 40 in placebo, 37 in 50 mg QD cohort, 41 in 50 mg BID cohort, and 40 in 80 mg QD cohort. • 3 force majeure events during the study caused missing MRI data at Week 4, 8, or 12 timepoints: Ukraine war & crisis, COVID-19 pandemic outbreak, and FDA's partial clinical hold. • Post-hoc analysis set (PHS) population. 115 patients remaining after excluding patients who missed any one of the 3 MRI data points within first 12 weeks: 27 in placebo, 30 in 50 mg QD, 29 in 50 mg BID, and 29 in 80 mg QD. • 132 patients completed 12 weeks of treatment and 127 patients completed 24 weeks of treatment.
(PHS Population, N=115) The adjusted mean cumulative number, percent reduction (orelabrutinib vs placebo) associated with p-value are estimated from a Poisson regression model with a Pearson scale parameter with a log link function and offset by log number of scans as of Week 12. Baseline number of Gd+T1 brain lesions is included in the model as a continuous covariate.
The adjusted mean cumulative numbers are estimated from Poisson regression models with a Pearson scale parameter with a log link function and offset by log number of scans as of that visit. Baseline number of Gd+T1 brain lesions is included in the model as a continuous covariate.

Compound: C=CC(=O)N1CCC(c2ccc(C(N)=O)c(-c3ccc(Oc4ccccc4)cc3)n2)CC1 [orelabrutinib, 2-(4-phenoxyphenyl)-6-[1-(prop-2-enoyl)piperidin-4-yl]pyridine-3-carboxamide]
- average clinical score (EAE) ([1]; 30 mg/kg/day PO QD, day 15 post-immunization, vehicle 2.0): 0.9
- average clinical score (EAE) ([1]; 30 mg/kg/day PO QD, day 21, p<0.05, vehicle 1.5): 0.6
- body weight loss associated with EAE ([1]; 30 mg/kg/day PO QD, vs vehicle): reduced weight loss
- reduction of EAE score ([1]; 30 mg/kg/day oral): 50%
- EAE severity ([1]; 30 mg/kg/day oral, vs vehicle): markedly ameliorated EAE severity
- percent reduction of cumulative number of new Gd+T1 brain lesions relative to placebo ([2]; Week 12, 50 mg BID): 78.8%
- percent reduction of cumulative number of new Gd+T1 brain lesions relative to placebo ([2]; Week 12, 50 mg QD): 73.3%
- percent reduction of cumulative number of new Gd+T1 brain lesions relative to placebo ([2]; Week 12, 80 mg QD): 80.5%
- Adjusted mean cumulative number of new Gd+T1 lesions from W 4 to W 24 ([2]; 50 mg BID (N=29)): 1.08
- Adjusted mean cumulative number of new Gd+T1 lesions at Week 12 ([2]; 50 mg BID (N=29)): 0.82
- % Reduction of cumulative number of new Gd+T1 lesions from Week 4 to Week 24 vs placebo/50 mg QD switch arm ([2]; 50 mg BID, P 0.0114): 83.3%
- Adjusted mean cumulative number of new Gd+T1 lesions from W 4 to W 24 ([2]; 50 mg QD (N=30)): 2.10
- Adjusted mean cumulative number of new Gd+T1 lesions at Week 12 ([2]; 50 mg QD (N=30)): 1.14
- % Reduction of cumulative number of new Gd+T1 lesions from Week 4 to Week 24 vs placebo/50 mg QD switch arm ([2]; 50 mg QD, P 0.0958): 67.4%
- Adjusted mean cumulative number of new Gd+T1 lesions from W 4 to W 24 ([2]; 80 mg QD (N=29)): 0.50
- Adjusted mean cumulative number of new Gd+T1 lesions at Week 12 ([2]; 80 mg QD (N=29)): 0.42
- % Reduction of cumulative number of new Gd+T1 lesions from Week 4 to Week 24 vs placebo/50 mg QD switch arm ([2]; 80 mg QD, P 0.0037): 92.3%
- % Reduction of cumulative number of new Gd+T1 brain lesions vs placebo ([2]; Week 12, 50 mg BID (N=29), P 0.0073): 81.0%
- % Reduction of cumulative number of new Gd+T1 brain lesions vs placebo ([2]; Week 12, 50 mg QD (N=30), P 0.0278): 73.8%
- % Reduction of cumulative number of new Gd+T1 brain lesions vs placebo ([2]; Week 12, 80 mg QD (N=29), P 0.0018): 90.4%
- Annualized relapse rate (ARR) ([2]; Week 24, 50 mg BID): 0.12
- Annualized relapse rate (ARR) ([2]; Week 24, 50 mg QD): 0.05
- Annualized relapse rate (ARR) ([2]; Week 24, 80 mg QD): 0.06
- Annualized relapse rate (ARR) ([2]; Week 24, placebo/50 mg QD switch arm (placebo Week 1-12, orelabrutinib 50 mg QD Week 13-24)): 0.14
- Adjusted mean cumulative number of new Gd+T1 lesions from W 4 to W 24 ([2]; switch arm: placebo Week 1-12 / orelabrutinib 50 mg QD Week 13-24 (N=27)): 6.45
- Annualized relapse rate (ARR) compared to the placebo group ([2]; all orelabrutinib cohorts, Week 12, sustained through Week 24): reduced
- control of new T1 lesions ([2]; all orelabrutinib cohorts, after 4 weeks of treatment, effect sustained up to 24 weeks): Control of new T1 lesions was achieved
